From ChEMBL document CHEMBL1201862, “PubChem BioAssay data set” (2004)
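In this assay, cells in 96-well plates receive the compound at five concentrations for 48 hours. Endpoints are linearly interpolated between the surrounding concentrations. GI50 = concentration required for 50% inhibition of growth.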 Active and inactive are the calls of the source. Cut-off read from the data, not from the text of the source: active = GI50 up to about 1.1 µM and inactive = higher.

Columns and labels:
Experiment in all cases: inhibition of tumour cell growth, NCI panel, 48 h
OVCAR-8 = system: OVCAR-8
RPMI-8226 = system: RPMI-8226
ACHN = system: ACHN
TK-10 = system: TK-10
SF-539 = system: SF-539
A549 = system: A549
OVCAR-5 = system: OVCAR-5
U-251 = system: U-251
IGROV-1 = system: IGROV-1
SNB-19 = system: SNB-19
SK-MEL-5 = system: SK-MEL-5
HL-60 = system: HL-60
786-0 = system: 786-0
HCC 2998 = system: HCC 2998
EKVX = system: EKVX
SF-295 = system: SF-295
SK-OV-3 = system: SK-OV-3
KM12 = system: KM12
HOP-62 = system: HOP-62
CAKI-1 = system: CAKI-1

Compound	GI50 (OVCAR-8)	GI50 (RPMI-8226)	GI50 (ACHN)	GI50 (TK-10)	GI50 (SF-539)	GI50 (A549)	GI50 (OVCAR-5)	GI50 (U-251)	GI50 (IGROV-1)	GI50 (SNB-19)	GI50 (SK-MEL-5)	GI50 (HL-60)	GI50 (786-0)	GI50 (HCC 2998)	GI50 (EKVX)	GI50 (SF-295)	GI50 (SK-OV-3)	GI50 (KM12)	GI50 (HOP-62)	GI50 (CAKI-1)
CCOC(=O)C(NC(=O)CC)(Nc1cc(C)on1)C(F)(F)F (stereo not drawn)	> 100 µM (inactive)	> 100 µM (inactive)	> 100 µM (inactive)	> 100 µM (inactive)	> 100 µM (inactive)	> 100 µM (inactive)	> 100 µM (inactive)	> 100 µM (inactive)	> 100 µM (inactive)	> 100 µM (inactive)	> 100 µM (inactive)	> 100 µM (inactive)	> 100 µM (inactive)	> 100 µM (inactive)	> 100 µM (inactive)					
COc1ccc(-c2cc(O)c3cc(OC)ccc3n2)cc1	> 100 µM (inactive)	> 100 µM (inactive)	> 100 µM (inactive)	> 100 µM (inactive)		> 100 µM (inactive)	> 100 µM (inactive)		> 100 µM (inactive)	> 100 µM (inactive)	> 100 µM (inactive)	> 100 µM (inactive)	> 100 µM (inactive)	5.74 µM (inactive)	> 100 µM (inactive)	> 100 µM (inactive)	> 100 µM (inactive)	> 100 µM (inactive)	> 100 µM (inactive)	
CN(C)CCCNC(=O)c1cc(NC(=O)CCCn2c3ccccc3c3ccccc32)cn1C	48.3 µM (inactive)	17.1 µM (inactive)	26.9 µM (inactive)	22.5 µM (inactive)	71.3 µM (inactive)	20.7 µM (inactive)	73.6 µM (inactive)	37.3 µM (inactive)	6.64 µM (inactive)	25 µM (inactive)	16.7 µM (inactive)	22.5 µM (inactive)	80.9 µM (inactive)		15.6 µM (inactive)	25.9 µM (inactive)	> 100 µM (inactive)	21.4 µM (inactive)	> 100 µM (inactive)	21.8 µM (inactive)
CCN(CC)CCNc1c(OC)cc(C)c2sc3ccccc3c(=O)c12	7.82 µM (inactive)	1.3 µM (inactive)	4.46 µM (inactive)	8.59 µM (inactive)	10.6 µM (inactive)	4.31 µM (inactive)	3.72 µM (inactive)	4.34 µM (inactive)	7.69 µM (inactive)	12.7 µM (inactive)	1.91 µM (inactive)	5.45 µM (inactive)	7.53 µM (inactive)		16.8 µM (inactive)	3.85 µM (inactive)	13.9 µM (inactive)	5.41 µM (inactive)	10.8 µM (inactive)	7.96 µM (inactive)
CC(Cc1ccccc1)N(C)Cc1nc(C2CCC([N+](=O)[O-])O2)no1 (stereo not drawn)	12.7 µM (inactive)	14.8 µM (inactive)		13.5 µM (inactive)	3.32 µM (inactive)	12.1 µM (inactive)	15.6 µM (inactive)	10.2 µM (inactive)	8.55 µM (inactive)	12.2 µM (inactive)	11.5 µM (inactive)	6.49 µM (inactive)	11.9 µM (inactive)	4.17 µM (inactive)	28.4 µM (inactive)	8.79 µM (inactive)	24.5 µM (inactive)	4.55 µM (inactive)	7.43 µM (inactive)	
Cc1cccc(-n2c(C)nc3ccc(NC4OC(CO)C(O)C(O)C4O)cc3c2=O)c1 (stereo not drawn)	> 100 µM (inactive)	> 100 µM (inactive)	> 100 µM (inactive)	> 100 µM (inactive)			> 100 µM (inactive)	> 100 µM (inactive)	> 100 µM (inactive)	> 100 µM (inactive)	> 100 µM (inactive)	> 100 µM (inactive)	> 100 µM (inactive)	> 100 µM (inactive)	> 100 µM (inactive)	> 100 µM (inactive)		> 100 µM (inactive)	> 100 µM (inactive)	> 100 µM (inactive)
CCOc1ccc2ccccc2c1NC1=NCCO1	74.6 µM (inactive)	19.5 µM (inactive)	20.6 µM (inactive)	> 100 µM (inactive)	49.3 µM (inactive)	61 µM (inactive)	> 100 µM (inactive)	45.3 µM (inactive)	33.9 µM (inactive)	29.6 µM (inactive)	44.9 µM (inactive)	19.9 µM (inactive)	> 100 µM (inactive)	38.5 µM (inactive)	60.8 µM (inactive)	19.1 µM (inactive)	39.5 µM (inactive)	24.9 µM (inactive)	28.2 µM (inactive)	
Cn1c(=O)c2ccc(-c3ccc(Br)cc3)nc2n(C)c1=O	> 100 µM (inactive)	> 100 µM (inactive)		49.5 µM (inactive)	> 100 µM (inactive)	> 100 µM (inactive)	> 100 µM (inactive)	> 100 µM (inactive)	> 100 µM (inactive)	> 100 µM (inactive)	> 100 µM (inactive)	> 100 µM (inactive)	> 100 µM (inactive)	> 100 µM (inactive)	42.9 µM (inactive)	> 100 µM (inactive)	> 100 µM (inactive)	> 100 µM (inactive)	> 100 µM (inactive)	
Cc1nc2c(o1)/C(=N\c1ccccc1)c1nc(C)oc1/C2=N/c1ccccc1	15.3 µM (inactive)	29.6 µM (inactive)	17.9 µM (inactive)	32.7 µM (inactive)	14.1 µM (inactive)	24.8 µM (inactive)	34 µM (inactive)	17.7 µM (inactive)	4.73 µM (inactive)	21.2 µM (inactive)	1.06 µM (active)	49.9 µM (inactive)	17.7 µM (inactive)	32.4 µM (inactive)	> 10 µM (inactive)	23.4 µM (inactive)	20.2 µM (inactive)		13.1 µM (inactive)	
CCCCCCCCCCCCCCCCOP(=O)(O)Oc1ccc(/C=C\c2ccc(OP(=O)(O)OCCCCCCCCCCCCCCCC)cc2)cc1	12.2 µM (inactive)	19.3 µM (inactive)	40.6 µM (inactive)	25.1 µM (inactive)		82.4 µM (inactive)	> 100 µM (inactive)	34 µM (inactive)	30.8 µM (inactive)	64.1 µM (inactive)	> 100 µM (inactive)	26 µM (inactive)	26.2 µM (inactive)	> 100 µM (inactive)	> 100 µM (inactive)	29.6 µM (inactive)	> 100 µM (inactive)	56.2 µM (inactive)	38.1 µM (inactive)	> 100 µM (inactive)
COc1cc(C2c3cc4c(cc3[C@@H](NCCN3CCCCC3)C3COC(=O)[C@H]23)OCO4)cc(OC)c1O (stereo partly drawn)	0.998 µM (active)	0.4 µM (active)	0.671 µM (active)	1.89 µM (inactive)	0.209 µM (active)	0.0484 µM (active)	1.69 µM (inactive)	0.122 µM (active)	1.46 µM (inactive)	0.323 µM (active)	0.325 µM (active)	0.0322 µM (active)	0.188 µM (active)		1.63 µM (inactive)	0.0986 µM (active)	0.0526 µM (active)	1.08 µM (active)	0.0624 µM (active)	0.0802 µM (active)
